Results on six molecules are retold here after ChEMBL document CHEMBL1201862, “PubChem BioAssay data set” (2004).

One assay deals with H9c2. Briefly: cells. The following applies: Rattus norvegicus, H9c2, Myocardium. Type of assay: functional, cell-based.
Assay [1] addresses T1, Runt-related transcription factor 1/Core-binding factor subunit beta (Homo sapiens, UniProt Q01196+Q13951). The assay is described as follows: inhibitors of RUNX1 Runt–CBFb-SMMHC binding, biochemical, TR-FRET (AID 1438). Type of assay: protein assay. On the technique in general: Time-resolved FRET reads energy transfer from a long-lived donor to a nearby acceptor.
For assay [2], the target named is T1, Runt-related transcription factor 1/Core-binding factor subunit beta. Briefly: inhibitors of RUNX1 Runt–CBFb-SMMHC binding, primary screen, biochemical, FRET, Cerulean-Runt, Venus-CBFb-SMMHC, uHTS (AID 1434).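 Further: partner is the CBFb-SMMHC leukemia fusion protein rather than wild-type CBFb.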 Type of assay: protein assay.
The target in assay [3] is T2, Nucleotide-binding oligomerization domain-containing protein 1 (Homo sapiens, UniProt Q9Y239).
T2 sequence (Q9Y239 whole entry): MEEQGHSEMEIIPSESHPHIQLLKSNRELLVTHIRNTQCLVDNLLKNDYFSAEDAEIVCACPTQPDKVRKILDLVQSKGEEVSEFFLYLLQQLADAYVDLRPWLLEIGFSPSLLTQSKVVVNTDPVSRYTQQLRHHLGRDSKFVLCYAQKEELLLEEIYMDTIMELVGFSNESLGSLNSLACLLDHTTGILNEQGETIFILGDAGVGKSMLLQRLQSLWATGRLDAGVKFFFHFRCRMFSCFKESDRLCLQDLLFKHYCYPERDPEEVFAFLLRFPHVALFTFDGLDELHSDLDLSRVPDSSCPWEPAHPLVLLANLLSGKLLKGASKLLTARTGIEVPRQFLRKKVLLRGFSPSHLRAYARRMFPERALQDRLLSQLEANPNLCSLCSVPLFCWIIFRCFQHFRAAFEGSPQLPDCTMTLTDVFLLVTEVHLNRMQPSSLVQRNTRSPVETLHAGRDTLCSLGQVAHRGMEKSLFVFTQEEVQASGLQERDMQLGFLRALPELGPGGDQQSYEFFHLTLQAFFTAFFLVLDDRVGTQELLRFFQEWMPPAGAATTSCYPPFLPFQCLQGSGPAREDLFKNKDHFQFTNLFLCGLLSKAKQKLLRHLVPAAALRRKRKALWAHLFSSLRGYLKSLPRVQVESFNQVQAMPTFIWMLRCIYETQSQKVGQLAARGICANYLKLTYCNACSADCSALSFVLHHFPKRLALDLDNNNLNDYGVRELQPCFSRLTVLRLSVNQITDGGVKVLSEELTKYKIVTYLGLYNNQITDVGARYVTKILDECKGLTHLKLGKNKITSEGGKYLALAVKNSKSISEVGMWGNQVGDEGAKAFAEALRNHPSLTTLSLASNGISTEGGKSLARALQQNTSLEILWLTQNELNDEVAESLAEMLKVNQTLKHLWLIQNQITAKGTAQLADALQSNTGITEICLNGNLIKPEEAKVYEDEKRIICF
Briefly: NOD1 signaling inhibitors, SAR follow-up, revised (AID 2333). Type of assay: functional.

In assay [4] the test system is HEK293. The assay is described as follows: NOD2 signaling inhibitors in MDP-stimulated cells, cell-based, uHTS, luminescence (AID 2001). Type of assay: functional. The note with it: Homo sapiens.
Assay [5] deals with T3, Nucleotide-binding oligomerization domain-containing protein 2 (Homo sapiens, UniProt Q9HC29). The assay is described as follows: NOD2 signaling inhibitors, cell-based, luminescence, uHTS, HEK293 (AID 1566). Type of assay: functional.
T3 sequence (Q9HC29 whole entry, the tested form may be a part): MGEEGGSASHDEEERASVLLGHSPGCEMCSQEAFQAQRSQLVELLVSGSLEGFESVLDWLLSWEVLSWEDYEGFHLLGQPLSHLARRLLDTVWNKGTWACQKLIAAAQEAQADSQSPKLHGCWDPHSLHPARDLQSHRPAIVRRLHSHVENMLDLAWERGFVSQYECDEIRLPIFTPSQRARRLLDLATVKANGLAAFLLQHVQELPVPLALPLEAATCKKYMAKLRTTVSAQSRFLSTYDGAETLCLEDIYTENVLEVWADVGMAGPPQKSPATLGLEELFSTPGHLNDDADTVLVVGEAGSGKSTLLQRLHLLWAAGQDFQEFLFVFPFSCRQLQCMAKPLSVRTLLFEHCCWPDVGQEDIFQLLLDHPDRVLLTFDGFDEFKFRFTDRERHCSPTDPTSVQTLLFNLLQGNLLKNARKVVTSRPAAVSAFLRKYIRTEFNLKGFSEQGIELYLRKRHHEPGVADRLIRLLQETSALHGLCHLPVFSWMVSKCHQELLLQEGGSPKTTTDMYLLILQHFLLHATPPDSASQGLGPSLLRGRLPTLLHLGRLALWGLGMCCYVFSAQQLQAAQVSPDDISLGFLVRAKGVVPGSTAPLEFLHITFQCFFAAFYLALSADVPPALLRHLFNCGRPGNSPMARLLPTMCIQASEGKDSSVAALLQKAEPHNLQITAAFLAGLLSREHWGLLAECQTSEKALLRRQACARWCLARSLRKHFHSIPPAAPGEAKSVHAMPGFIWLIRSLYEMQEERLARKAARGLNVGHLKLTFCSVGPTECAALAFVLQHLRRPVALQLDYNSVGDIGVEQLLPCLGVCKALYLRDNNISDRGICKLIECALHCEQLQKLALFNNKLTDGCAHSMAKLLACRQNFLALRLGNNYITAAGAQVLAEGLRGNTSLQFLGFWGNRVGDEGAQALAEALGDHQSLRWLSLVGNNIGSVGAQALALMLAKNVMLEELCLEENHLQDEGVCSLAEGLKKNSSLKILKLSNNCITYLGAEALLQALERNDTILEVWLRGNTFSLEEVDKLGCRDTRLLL
Assay [6] relates to HEK293. The assay is described as follows: NOD1 signaling inhibitors, primary screen, cell-based, luminescence, uHTS (AID 1578). Type of assay: functional. The following applies: Homo sapiens.
Assay [7] relates to HEK293. The assay is described as follows: cells. Type of assay: functional, cell-based. The following applies: Homo sapiens.
The target in assay [8] is T3, Nucleotide-binding oligomerization domain-containing protein 2. Briefly: PubChem AID 2334. Type of assay: functional.
Assay [9] concerns Streptococcus sp. 'group A'. Briefly: growth inhibition of control SK(-) GAS strain, dose response, counter-screen for streptokinase expression inhibitor project, luminescence, kanamycin, BacTiterGlo, confirmation (AID 1900). Type of assay: functional, organism-based. (The purpose of a counterscreen is to sort out artefacts and off-target activity.)
The next assay addresses Tumor necrosis factor (Homo sapiens, UniProt P01375). The assay is described as follows: TNFa-triggered NF-kB activation inhibitors, SAR follow-up, cell-based, revised (AID 2337). Type of assay: functional.
Assay [10] concerns HEK293. The assay is described as follows: cells. Type of assay: functional, cell-based. The note with it: Homo sapiens. The source holds these as a separate data set.
The subject of a further assay is Streptococcus. Briefly: Group A Streptococcus viability loss, dose response, counter-screen for streptokinase expression inhibitor project, luminescence, BacTiterGlo (AID 1915).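 Further: potency for reduction of bacterial viability or growth.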 Type of assay: functional, organism-based.
Assay [11] concerns HEK293. Briefly: cells. Type of assay: functional, cell-based. The note with it: Homo sapiens. The source holds these as a separate data set.
Assay [12] deals with HEK293. The assay is described as follows: cells. The note with it: Homo sapiens.
For assay [13], the target named is T4, Voltage-gated N-type calcium channel alpha-1B subunit/Amyloid beta A4 precursor protein-binding family A member 1 (Homo sapiens, UniProt Q00975+Q02410). Type of assay: protein assay.
For assay [14], the target named is Induced myeloid leukemia cell differentiation protein Mcl-1 (Homo sapiens, UniProt Q07820). Type of assay: functional.
Chain of Induced myeloid leukemia cell differentiation protein Mcl-1 (Q07820 whole entry): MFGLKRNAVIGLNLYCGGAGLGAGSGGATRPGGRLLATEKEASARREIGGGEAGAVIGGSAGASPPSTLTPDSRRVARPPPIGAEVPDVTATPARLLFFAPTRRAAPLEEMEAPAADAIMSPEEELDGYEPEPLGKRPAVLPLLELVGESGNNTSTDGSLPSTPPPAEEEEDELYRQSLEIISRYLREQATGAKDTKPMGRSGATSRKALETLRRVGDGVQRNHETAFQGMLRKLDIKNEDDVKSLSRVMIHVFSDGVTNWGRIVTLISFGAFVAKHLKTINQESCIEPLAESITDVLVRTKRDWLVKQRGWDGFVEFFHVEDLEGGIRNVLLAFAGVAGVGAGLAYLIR
For a further assay, the target named is Large T antigen (Simian virus 40, UniProt P03070). Type of assay: functional, Betapolyomavirus macacae.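 Further: Confirmatory-stage PubChem screen for compounds that inhibit SV40 T antigen.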
Chain of Large T antigen (P03070 whole entry): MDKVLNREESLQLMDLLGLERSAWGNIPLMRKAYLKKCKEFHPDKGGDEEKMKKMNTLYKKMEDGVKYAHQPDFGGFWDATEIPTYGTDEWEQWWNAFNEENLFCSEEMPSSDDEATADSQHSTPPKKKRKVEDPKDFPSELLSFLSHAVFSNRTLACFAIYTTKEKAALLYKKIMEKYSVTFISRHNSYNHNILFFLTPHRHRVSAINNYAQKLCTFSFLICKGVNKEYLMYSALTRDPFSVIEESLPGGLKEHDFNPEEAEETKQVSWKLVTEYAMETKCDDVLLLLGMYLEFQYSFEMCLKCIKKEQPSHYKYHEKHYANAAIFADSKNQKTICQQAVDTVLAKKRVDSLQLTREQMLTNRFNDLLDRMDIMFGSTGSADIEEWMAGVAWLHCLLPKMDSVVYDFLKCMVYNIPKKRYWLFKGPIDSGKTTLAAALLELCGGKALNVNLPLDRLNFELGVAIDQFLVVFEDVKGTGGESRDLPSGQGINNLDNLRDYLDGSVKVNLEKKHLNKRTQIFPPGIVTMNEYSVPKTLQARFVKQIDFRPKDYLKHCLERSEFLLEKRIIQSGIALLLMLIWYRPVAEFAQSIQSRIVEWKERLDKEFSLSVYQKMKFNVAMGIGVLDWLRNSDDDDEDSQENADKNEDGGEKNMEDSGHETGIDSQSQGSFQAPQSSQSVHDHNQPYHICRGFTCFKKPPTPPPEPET
Assay [15] deals with T4, Voltage-gated N-type calcium channel alpha-1B subunit/Amyloid beta A4 precursor protein-binding family A member 1. Type of assay: protein assay. This is another data set of the same source.
Assay [16] deals with T5, Tyrosine-protein phosphatase non-receptor type 7 (Homo sapiens, UniProt P35236).
T5 sequence (P35236 whole entry): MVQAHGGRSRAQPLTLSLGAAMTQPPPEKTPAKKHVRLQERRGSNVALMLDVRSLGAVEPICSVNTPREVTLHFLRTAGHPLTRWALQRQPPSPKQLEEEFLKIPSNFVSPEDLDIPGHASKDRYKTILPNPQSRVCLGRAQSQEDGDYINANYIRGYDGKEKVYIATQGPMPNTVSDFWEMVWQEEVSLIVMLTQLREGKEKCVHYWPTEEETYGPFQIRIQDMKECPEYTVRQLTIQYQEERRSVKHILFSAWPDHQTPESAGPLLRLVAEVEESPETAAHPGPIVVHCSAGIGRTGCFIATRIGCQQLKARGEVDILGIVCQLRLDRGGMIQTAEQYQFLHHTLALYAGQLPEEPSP
The assay is described as follows: SAR analysis of chemical inhibitors of HePTP using a Fluorescent assay - Set 2. [Related pubchem assays (depositor defined):AID1059, AID1077, AID1661, AID2085, AID521]. Type of assay: functional.

The target in assay [17] is Dual specificity protein phosphatase 3 (Homo sapiens, UniProt P51452). The assay is described as follows: SAR VHR1 Fluorescent Assay for In Vitro dose response studies Set 2. [Related pubchem assays (depositor defined):AID1654, AID1661, AID1878]. Type of assay: functional.
Chain of Dual specificity protein phosphatase 3 (P51452 whole entry): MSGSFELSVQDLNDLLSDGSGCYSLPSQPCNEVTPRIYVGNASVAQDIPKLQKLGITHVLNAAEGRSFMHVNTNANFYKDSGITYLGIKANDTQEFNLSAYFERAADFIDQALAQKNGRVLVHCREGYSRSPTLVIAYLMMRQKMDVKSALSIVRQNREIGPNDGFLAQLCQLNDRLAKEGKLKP
Assay [18] has as its target T6, Polyadenylate-binding protein 1 (Homo sapiens, UniProt P11940). Briefly: PABP1 MLLE–PAM2 binding inhibitor potency, dose response, biochemical, fluorescence polarization, FITC-PAM2 peptide (AID 602259). Type of assay: functional. The following applies: read-out: IC50_Mean. In general terms: Fluorescence polarisation rises when a labelled molecule tumbles more slowly, as on binding a larger partner.

Assay [19] concerns the target E3 ubiquitin-protein ligase Mdm2 (Homo sapiens, UniProt Q00987). The assay is described as follows: enhancers of MDM2-luciferase reporter signal, concentration-effect titration, project on inhibitors of MDM2 ubiquitin ligase, cellular assay, luminescent readout, 384-well plate format (AID 1394).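 Further: MDM2 E3 inhibitors raise luminescence so EC50 is for signal enhancement.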 Type of assay: functional.
Assay [20] has as its target T6, Polyadenylate-binding protein 1. The assay is described as follows: PABP1 MLLE–PAM2 interaction inhibitors, dose response, miRNA deadenylation inhibitor project, biochemical, fluorescence polarization, Cy5-PAM2 peptide, secondary (AID 602260). The following applies: read-out: IC50_Mean. Type of assay: functional.
In assay [21] the target is T7, Heat shock factor protein 1 (Mus musculus, UniProt P38532).
T7 sequence (P38532 whole entry): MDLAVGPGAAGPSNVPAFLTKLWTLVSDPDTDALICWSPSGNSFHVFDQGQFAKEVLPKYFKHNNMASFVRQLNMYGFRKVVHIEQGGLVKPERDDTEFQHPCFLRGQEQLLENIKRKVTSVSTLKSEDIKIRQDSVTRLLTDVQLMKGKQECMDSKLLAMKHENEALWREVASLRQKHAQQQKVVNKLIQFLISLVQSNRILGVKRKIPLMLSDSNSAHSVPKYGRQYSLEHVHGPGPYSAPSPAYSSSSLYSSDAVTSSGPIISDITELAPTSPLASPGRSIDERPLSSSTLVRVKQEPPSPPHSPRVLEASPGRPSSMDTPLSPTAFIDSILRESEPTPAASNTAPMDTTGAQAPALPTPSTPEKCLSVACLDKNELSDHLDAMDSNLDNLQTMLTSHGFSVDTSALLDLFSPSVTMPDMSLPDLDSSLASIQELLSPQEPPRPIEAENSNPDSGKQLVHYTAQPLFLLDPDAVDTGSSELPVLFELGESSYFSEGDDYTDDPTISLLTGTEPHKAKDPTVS
Briefly: HSF1 potentiators in luciferase reporter cells, confirmation, cell-based, NIH3T3, luminescence, dose retest (AID 435004).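 Further: stress induced by proteasome inhibitor MG132 added 30 min after compound; luciferase reporter driven by HSF1 response element in NIH3T3 cells; actives raise luminescence as potentiators of the MG132 stress response.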 Type of assay: functional.

The target in assay [22] is Microphthalmia-associated transcription factor (Homo sapiens, UniProt O75030). Briefly: TRPM1 promoter luciferase signal decrease, dose response, MITF inhibitor project, cell-based, SK-MEL-5, cherry-picked, set 3 (AID 493073). Type of assay: functional.
Chain of Microphthalmia-associated transcription factor (O75030 whole entry): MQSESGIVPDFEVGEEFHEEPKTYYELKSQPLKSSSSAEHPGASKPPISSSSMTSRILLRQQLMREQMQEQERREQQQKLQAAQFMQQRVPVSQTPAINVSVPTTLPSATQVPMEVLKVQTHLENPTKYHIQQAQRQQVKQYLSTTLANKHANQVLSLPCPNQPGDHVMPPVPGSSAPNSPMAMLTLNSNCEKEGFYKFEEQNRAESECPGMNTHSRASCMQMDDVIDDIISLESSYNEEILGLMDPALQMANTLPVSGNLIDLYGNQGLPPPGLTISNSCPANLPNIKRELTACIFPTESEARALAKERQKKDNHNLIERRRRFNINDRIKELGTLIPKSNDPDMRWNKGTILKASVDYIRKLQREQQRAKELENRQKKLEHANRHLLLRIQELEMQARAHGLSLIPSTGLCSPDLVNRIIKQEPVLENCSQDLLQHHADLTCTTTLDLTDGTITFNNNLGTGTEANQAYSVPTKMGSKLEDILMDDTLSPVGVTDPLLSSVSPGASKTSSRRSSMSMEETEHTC

Calls of active or inactive are those of the source.

T1 sequence (Q01196 whole entry, the tested form may be a part): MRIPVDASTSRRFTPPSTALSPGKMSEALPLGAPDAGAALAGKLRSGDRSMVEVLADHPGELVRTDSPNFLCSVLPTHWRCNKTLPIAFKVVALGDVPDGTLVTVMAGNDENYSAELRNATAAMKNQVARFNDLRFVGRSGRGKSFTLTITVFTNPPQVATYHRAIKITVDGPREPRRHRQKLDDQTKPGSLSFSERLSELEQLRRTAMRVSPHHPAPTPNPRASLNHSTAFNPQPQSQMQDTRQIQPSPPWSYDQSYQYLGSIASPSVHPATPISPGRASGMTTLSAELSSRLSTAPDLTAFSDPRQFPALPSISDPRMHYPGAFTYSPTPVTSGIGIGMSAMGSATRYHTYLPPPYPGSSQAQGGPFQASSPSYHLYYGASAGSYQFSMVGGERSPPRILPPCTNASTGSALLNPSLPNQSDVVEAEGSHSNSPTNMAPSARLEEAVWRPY
T1 sequence (Q13951 whole entry, the tested form may be a part): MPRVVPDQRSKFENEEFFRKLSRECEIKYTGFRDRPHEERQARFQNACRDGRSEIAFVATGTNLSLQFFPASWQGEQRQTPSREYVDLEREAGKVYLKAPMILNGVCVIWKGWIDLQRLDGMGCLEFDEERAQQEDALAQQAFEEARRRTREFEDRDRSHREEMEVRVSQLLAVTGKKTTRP
T6 sequence (P11940 whole entry): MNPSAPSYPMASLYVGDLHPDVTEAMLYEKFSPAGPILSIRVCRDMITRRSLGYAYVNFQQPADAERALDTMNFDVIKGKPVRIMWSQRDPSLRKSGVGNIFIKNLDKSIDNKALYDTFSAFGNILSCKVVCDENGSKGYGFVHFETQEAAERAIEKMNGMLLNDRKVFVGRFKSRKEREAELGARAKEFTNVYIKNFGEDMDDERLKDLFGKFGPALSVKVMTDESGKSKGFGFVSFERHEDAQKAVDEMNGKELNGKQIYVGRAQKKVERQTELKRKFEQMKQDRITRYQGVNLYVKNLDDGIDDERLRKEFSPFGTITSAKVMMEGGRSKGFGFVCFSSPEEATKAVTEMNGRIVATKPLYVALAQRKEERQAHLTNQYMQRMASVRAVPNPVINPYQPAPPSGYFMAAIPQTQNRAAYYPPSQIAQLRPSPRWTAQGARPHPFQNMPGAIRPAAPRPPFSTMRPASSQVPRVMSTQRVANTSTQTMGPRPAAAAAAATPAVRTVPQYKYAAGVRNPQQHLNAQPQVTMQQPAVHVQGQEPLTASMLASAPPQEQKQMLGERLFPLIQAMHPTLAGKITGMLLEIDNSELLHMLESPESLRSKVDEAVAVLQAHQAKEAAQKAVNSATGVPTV
Chain of Tumor necrosis factor (P01375 whole entry): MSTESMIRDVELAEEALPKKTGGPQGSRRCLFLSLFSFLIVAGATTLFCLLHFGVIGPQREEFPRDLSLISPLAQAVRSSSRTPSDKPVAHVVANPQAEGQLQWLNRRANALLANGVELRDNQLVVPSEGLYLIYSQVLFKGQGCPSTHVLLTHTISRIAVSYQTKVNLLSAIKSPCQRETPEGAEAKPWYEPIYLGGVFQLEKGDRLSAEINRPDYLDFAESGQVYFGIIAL
Chain of E3 ubiquitin-protein ligase Mdm2 (Q00987 whole entry): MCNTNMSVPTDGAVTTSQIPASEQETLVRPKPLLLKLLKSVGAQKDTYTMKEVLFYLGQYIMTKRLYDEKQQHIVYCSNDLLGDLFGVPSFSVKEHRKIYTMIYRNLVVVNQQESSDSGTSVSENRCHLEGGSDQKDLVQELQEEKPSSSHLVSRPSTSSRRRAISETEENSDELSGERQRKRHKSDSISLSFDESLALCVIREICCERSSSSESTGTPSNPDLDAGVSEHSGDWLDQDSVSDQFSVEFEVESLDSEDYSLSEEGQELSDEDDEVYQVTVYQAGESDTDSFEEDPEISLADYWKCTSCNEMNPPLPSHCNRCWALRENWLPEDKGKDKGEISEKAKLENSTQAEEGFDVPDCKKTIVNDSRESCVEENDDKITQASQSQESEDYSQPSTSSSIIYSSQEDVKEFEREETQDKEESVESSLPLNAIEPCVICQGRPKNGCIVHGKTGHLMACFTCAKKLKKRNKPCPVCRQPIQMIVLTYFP

Turning to `CC(C)c1cc(N2CCN(C(=O)c3ccco3)CC2)n2c(nc3ccccc32)c1C#N`, the results for the IC50 (in the assay on H9c2; in assay [1]; in [2]) were 15.5 µM (active), > 100 µM (inactive) and > 100 µM (inactive), respectively.

On to `Cc1cc(NC(=O)c2ccc(C)s2)n(-c2nc3ccccc3[nH]2)n1`, for which the IC50 in assay [3] was > 20 µM (inactive); with HEK293 [4], 4.57 µM (inactive); with HEK293 [7], > 20 µM (inactive); in [8], > 20 µM (inactive); on Tumor necrosis factor it was > 20 µM (inactive); in the assay with HEK293 [10] it was > 20 µM (inactive). Further, the IC50 in the assay on HEK293 [11] and in the assay with HEK293 [12] was > 20 µM (inactive) each time. The EC50 (usually the concentration at which the effect is half-maximal) in assay [5] was > 20 µM (inactive); with HEK293 [6], 4.06 µM (active); in assay [9], 3.04 µM (active); in the assay on Streptococcus it was 5.48 µM (active).

Turning to `COc1ccc(CC(=O)n2[nH]c(=O)ccc2=O)cc1OC`, the IC50 in [13] was 46.1 µM (active); in assay [14] it was 18.2 µM (active); at Large T antigen, > 100 µM (active); in [15], 1.53 µM (active).

For `NS(=O)(=O)c1ccc(NC(=S)N2CCN(c3ccc(Cl)c(Cl)c3)CC2)cc1`, the IC50 in [16] and in [17] was > 100 µM (inactive) each time.

For `Cc1cc(C)nc(S/C=C/C(=O)c2ccccc2F)n1`, the IC50 in assay [18] and in assay [20] was > 66 µM (inactive) throughout. In addition, the results for the EC50 in [19] and in assay [21] were 1 µM (active) and 14.7 µM (active), respectively. In [22], the AC50 (usually the concentration at which the activity in the assay is half-maximal) is 5.37 µM (active).

Take `Cc1ccc(-n2c(N)c(C(=O)N3CCCCC3)sc2=S)cc1`: the IC50 was > 100 µM (inactive) in assay [16] and 76.5 µM (active) in [17].
